Zone of inhibition and inhibition zone (IZ) data for 3 compounds are collected here from ChEMBL document CHEMBL3867433, “Synthesis and antimicrobial activity of styryl/pyrrolyl/pyrazolyl sulfonylmethyl-1,3,4-oxadiazolyl amines and styryl/pyrrolyl/pyrazolyl sulfonylmethyl-1,3,4-thiadiazolyl amines” (2016).

Format in all cases: functional
Assay [1] relates to Bacillus subtilis. Put plainly: Antibacterial activity against Bacillus subtilis at 50 ug/well after 24 hrs by agar well diffusion method. The conditions noted are these: read-out: DIZ.
The test system of assay [2] is Aspergillus niger. Put plainly: Antifungal activity against Aspergillus niger assessed as inhibition of spore germination at 50 ug/well after 48 hrs by agar well diffusion method. The conditions noted are these: read-out: DIZ.
Assay [3] deals with Staphylococcus aureus. Put plainly: Antibacterial activity against Staphylococcus aureus at 100 ug/well after 24 hrs by agar well diffusion method. The conditions noted are these: read-out: DIZ.
Assay [4] concerns Staphylococcus aureus. Description: Antibacterial activity against Staphylococcus aureus at 25 ug/well after 24 hrs by agar well diffusion method. The following applies: read-out: DIZ.
In assay [5] the test system is Klebsiella pneumoniae. Put plainly: Antibacterial activity against Klebsiella pneumoniae at 25 ug/well after 24 hrs by agar well diffusion method. The following applies: read-out: DIZ.
Assay [6] has as its system Staphylococcus aureus. Description: Antibacterial activity against Staphylococcus aureus at 12.5 ug/well after 24 hrs by agar well diffusion method. The following applies: read-out: DIZ.
In assay [7] the test system is Pseudomonas aeruginosa. Description: Antibacterial activity against Pseudomonas aeruginosa at 12.5 ug/well after 24 hrs by agar well diffusion method. The following applies: read-out: DIZ.
The nature of assay [8]: Antifungal activity against Penicillium chrysogenum assessed as inhibition of spore germination at 50 ug/well after 48 hrs by agar well diffusion method.
Assay [9] is described as follows: Antifungal activity against Penicillium chrysogenum assessed as inhibition of spore germination at 100 ug/well after 48 hrs by agar well diffusion method.
Assay [10] relates to Pseudomonas aeruginosa. Put plainly: Antibacterial activity against Pseudomonas aeruginosa at 25 ug/well after 24 hrs by agar well diffusion method. The following applies: read-out: DIZ.
The subject of assay [11] is Klebsiella pneumoniae. Description: Antibacterial activity against Klebsiella pneumoniae at 50 ug/well after 24 hrs by agar well diffusion method. The following applies: read-out: DIZ.
A short description of assay [12]: Antifungal activity against Penicillium chrysogenum assessed as inhibition of spore germination at 25 ug/well after 48 hrs by agar well diffusion method.
Assay [13] concerns Aspergillus niger. Description: Antifungal activity against Aspergillus niger assessed as inhibition of spore germination at 12.5 ug/well after 48 hrs by agar well diffusion method. The following applies: read-out: DIZ.
For assay [14], the system named is Bacillus subtilis. Put plainly: Antibacterial activity against Bacillus subtilis at 25 ug/well after 24 hrs by agar well diffusion method. The conditions noted are these: read-out: DIZ.
Assay [15] relates to Klebsiella pneumoniae. Description: Antibacterial activity against Klebsiella pneumoniae at 12.5 ug/well after 24 hrs by agar well diffusion method. The following applies: read-out: DIZ.
Assay [16] concerns Aspergillus niger. Description: Antifungal activity against Aspergillus niger assessed as inhibition of spore germination at 100 ug/well after 48 hrs by agar well diffusion method. The following applies: read-out: DIZ.
Assay [17] concerns Staphylococcus aureus. Description: Antibacterial activity against Staphylococcus aureus at 50 ug/well after 24 hrs by agar well diffusion method. The conditions noted are these: read-out: DIZ.
In assay [18] the test system is Pseudomonas aeruginosa. Description: Antibacterial activity against Pseudomonas aeruginosa at 100 ug/well after 24 hrs by agar well diffusion method. The conditions noted are these: read-out: DIZ.
Assay [19] is described as follows: Antifungal activity against Penicillium chrysogenum assessed as inhibition of spore germination at 12.5 ug/well after 48 hrs by agar well diffusion method.
Assay [20] deals with Klebsiella pneumoniae. Put plainly: Antibacterial activity against Klebsiella pneumoniae at 100 ug/well after 24 hrs by agar well diffusion method. The following applies: read-out: DIZ.
Assay [21] deals with Bacillus subtilis. Put plainly: Antibacterial activity against Bacillus subtilis at 100 ug/well after 24 hrs by agar well diffusion method. The conditions noted are these: read-out: DIZ.
The test system of assay [22] is Bacillus subtilis. Put plainly: Antibacterial activity against Bacillus subtilis at 12.5 ug/well after 24 hrs by agar well diffusion method. The following applies: read-out: DIZ.
Assay [23] deals with Aspergillus niger. Description: Antifungal activity against Aspergillus niger assessed as inhibition of spore germination at 25 ug/well after 48 hrs by agar well diffusion method. The following applies: read-out: DIZ.
For assay [24], the system named is Pseudomonas aeruginosa. Put plainly: Antibacterial activity against Pseudomonas aeruginosa at 50 ug/well after 24 hrs by agar well diffusion method. The following applies: read-out: DIZ.

Each structure is given as a SMILES string.

Regarding `Nc1nnc(CS(=O)(=O)/C=C\c2ccccc2)o1`, the zone of inhibition at 50 µg/disc in assay [1] amounted to 14 mm; in assay [2], 13 mm; in assay [11], 19 mm; in [17] it was 15 mm; in [24] it was 18 mm. The zone of inhibition at 100 µg/disc was 18 mm in assay [3]; 15 mm in assay [16]; 20 mm in assay [18]; 21 mm in [20]; 16 mm in [21]. Also, the zone of inhibition at 25 µg/disc in assay [4] came to 13 mm; in [5], 17 mm; in assay [10], 16 mm; in [14] it was 13 mm; in assay [23], 11 mm. Moreover, the zone of inhibition at 12.5 µg/disc stood at 11 mm in [6]; 14 mm in [7]; 9 mm in assay [13]; 15 mm in assay [15]; 12 mm in [22]. The inhibition zone (IZ) was determined as 15 mm in assay [8], 17 mm in assay [9], 13 mm in assay [12] and 11 mm in assay [19].
Turning to `Nc1nnc(CS(=O)(=O)c2n[nH]cc2-c2ccccc2)s1`, the zone of inhibition at 50 µg/disc in assay [1] amounted to 27 mm; in [2] it was 27 mm; in [11] it was 30 mm; in assay [17], 22 mm; in [24], 25 mm. The zone of inhibition at 100 µg/disc in assay [3] was determined as 24 mm; in [16] it was 29 mm; in [18], 27 mm; in assay [20], 32 mm; in [21], 29 mm. Further, the zone of inhibition at 25 µg/disc in assay [4] was found to be 21 mm; in assay [5], 28 mm; in assay [10] it was 23 mm; in assay [14], 26 mm; in assay [23] it was 25 mm. The zone of inhibition at 12.5 µg/disc in assay [6] stood at 20 mm; in [7] it was 22 mm; in assay [13], 23 mm; in assay [15] it was 26 mm; in assay [22] it was 25 mm. Moreover, the inhibition zone (IZ) in assay [8] was 34 mm; in assay [9] it was 36 mm; in assay [12] it was 32 mm; in assay [19], 30 mm.
For `Nc1nnc(CS(=O)(=O)/C=C\c2ccccc2)s1`, the zone of inhibition at 50 µg/disc in assay [1] turned out to be 29 mm; in assay [2], 29 mm; in assay [11], 31 mm; in assay [17], 23 mm; in assay [24], 27 mm. The zone of inhibition at 100 µg/disc in assay [3] turned out to be 25 mm; in [16], 31 mm; in assay [18] it was 29 mm; in [20], 33 mm; in [21], 31 mm. The zone of inhibition at 25 µg/disc in assay [4] amounted to 22 mm; in assay [5] it was 29 mm; in assay [10], 25 mm; in [14], 28 mm; in assay [23] it was 27 mm. Moreover, the zone of inhibition at 12.5 µg/disc was 21 mm in assay [6]; 23 mm in [7]; 25 mm in assay [13]; 27 mm in [15]; 27 mm in assay [22]. The inhibition zone (IZ) amounted to 36 mm in [8], 35 mm in assay [9], 34 mm in assay [12] and 29 mm in assay [19].
